According to patent US11421264B2, “Thiol-containing cleave reagents and oxidative wash” (IsoPlexis Corporation, priority 2015, dated 2022):
Where a name gives a salt, the structure may show the parent alone.

Tests used:
[1] = Cleavage of 3′-(MeSSCH2) capped nucleotide with attached disulfide linker by thiol based cleave reagents (LC-MS); conditions: for Compound C [%]: fully cleaved product; for Compound C [%] / Compound B [%] / Compound A [%]: Compound A 0.2 mM, cleave agent 20 mM, buffer 200 mM TE pH 8.5, 10 min @ 65 degree C.; for Compound B [%]: partly cleaved product; for Compound A [%]: starting nucleotide left, relative peak area at 280
Protocol: The structures of these cleave reagents are shown. See, FIG. 83. The cleavage products were then characterized by liquid chromatography/mass spectrometry ((LC/MS). See, FIG. 84. Compounds A, B and C are shown in FIG. 82A-82C.
This example presents a general method for cleavage studies as presented herein.
A stock solution of 100 mM cleave reagent (see Table-1) was prepared in 1.0 M TE buffer (pH 8.5, Sigma #T9285) in a 15.0 mL centrifuge tube. Then an aliquot of 20 μL (2,000 nmol) of it was diluted with 76.9 uL distilled water in a 1.0 mL centrifuge tube and added with 3.07 μL of 6.5 mM MeSSdUTP-ARA-NH2 (11, 20 nmol) to obtain—100 litL of total volume (Final concentration: 20 mM cleaving agent, 0.2 mM nucleotide, 200 mM TE buffer). The mixture tube was heated at 65 degree C. on a pre-heated thermocycler by shaking gently. The mixture was immediately analyzed by LC-MS after 10 minutes. The % conversion was determined by relative peak areas of the respective peaks extracted at 280 mu wavelength.

[2] = Cleavage of nucleotide with dithio 3′ protective group and dithio based linker by cleavage agents (RP-HPLC, FIG. 78); conditions: RP-HPLC after 10 minutes of incubation with cleave reagent
Source text: In addition to these a variety of suitable cleaving agents can be used such as Bis(2-mercaptoethyl)sulfone (BMS) and N,N′-dimethyl-N,N′-bis(mercaptoacetyl)hydrazine (DMH) (Singh et al., Bioorg. Chem., 22, 109-115 (1994). Reactions can be further catalyzed by inclusion of selenols (Singh et al. Anal Biochem. 1995 Nov. 20; 232(1):86-91 [18]). Borohydrides, such as sodium borohydrides can also be used for this purpose (Stahl et al., Anal. Chem., 1957, 29 (1), pp 154-155 [19]) as well as ascorbic acid (Nardai et al., J. Biol. Chem. 276, 8825-8828 (2001)). In addition, enzymatic methods for cleavage of disulfide bonds ae also well known such as disulfide and thioreductase and can be used with compounds of the present invention (Holmgren et. al., Methods in Enzymology, Volume 252, 1995, Pages 199-208 [21]).

Molecule | Compound C [%] [1] [%] | Compound B [%] [1] [%] | Compound A [%] [1] [%] | identified composition of reaction mixture: cleavage of linker and 3′-protective group [2] | cleavage of both the capping group and the linker ([1]; in less than ten (10) minutes at 65° C. in TRIS buffer (pH 8.5))
O[C@H](CS)[C@H](O)CS (racemic) [DTT, dithiothreitol] | 100 | 0 | 0 | full cleavage of both linker and the 3′-protective groups | 
NCCS [Cysteamine] | 100 | 0 | 0 | full cleavage of both linker and the 3′-protective groups | 
O=S(=O)(O)CC(S)CS (centres unmarked) [Dimercaptopropanesulfonate, 2,3-Dimercapto-1-propanesulfonic acid sodium salt] | 100 | 0 | 0 |  | 
OC(=S)CCC(O)=S [Dithiosuccinic acid] |  |  |  |  | complete cleavage was not observed
N[C@@H](CS)C(=O)O [L-Cysteine] | 100 | 0 | 0 | full cleavage of both linker and the 3′-protective groups | 
Dithiosuccinic acid | 50 | 50 | 0 | selective cleavage of 3′-O-protective group | 
